The target in test [1] is T1, Protein mono-ADP-ribosyltransferase PARP10 (Homo sapiens, UniProt Q53GL7).
T1 sequence (Q53GL7 whole entry): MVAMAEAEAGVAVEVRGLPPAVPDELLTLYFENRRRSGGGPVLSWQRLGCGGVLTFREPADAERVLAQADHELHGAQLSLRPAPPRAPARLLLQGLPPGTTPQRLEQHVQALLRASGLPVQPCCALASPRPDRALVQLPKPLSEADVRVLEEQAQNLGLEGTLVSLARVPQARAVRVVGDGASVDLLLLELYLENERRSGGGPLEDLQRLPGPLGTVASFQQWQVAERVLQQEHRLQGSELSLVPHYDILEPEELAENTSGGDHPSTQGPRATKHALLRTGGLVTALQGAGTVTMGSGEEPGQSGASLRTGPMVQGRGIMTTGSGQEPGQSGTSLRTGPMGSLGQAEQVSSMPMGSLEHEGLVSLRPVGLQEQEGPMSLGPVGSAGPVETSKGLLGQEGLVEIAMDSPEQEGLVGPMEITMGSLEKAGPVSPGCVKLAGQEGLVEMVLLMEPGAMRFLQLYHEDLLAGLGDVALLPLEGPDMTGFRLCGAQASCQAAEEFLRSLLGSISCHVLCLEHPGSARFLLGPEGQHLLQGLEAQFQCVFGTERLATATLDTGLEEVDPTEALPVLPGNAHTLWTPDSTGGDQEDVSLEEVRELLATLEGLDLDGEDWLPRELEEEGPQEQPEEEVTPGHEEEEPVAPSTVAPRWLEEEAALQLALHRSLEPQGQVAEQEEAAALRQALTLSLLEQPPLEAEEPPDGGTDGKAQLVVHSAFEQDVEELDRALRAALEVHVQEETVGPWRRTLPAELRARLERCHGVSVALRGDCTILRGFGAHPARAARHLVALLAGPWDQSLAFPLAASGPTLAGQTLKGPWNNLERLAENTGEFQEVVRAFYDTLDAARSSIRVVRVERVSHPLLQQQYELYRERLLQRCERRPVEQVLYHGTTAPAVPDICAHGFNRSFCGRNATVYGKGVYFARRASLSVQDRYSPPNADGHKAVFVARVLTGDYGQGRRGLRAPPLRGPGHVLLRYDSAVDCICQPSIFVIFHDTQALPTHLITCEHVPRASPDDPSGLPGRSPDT
Nature of the test: Inhibition of C-terminal His-tagged human ARTD10 (809 to 1017 residues) expressed in Escherichia coli Rosetta2 (DE3) using SRPK2 as substrate after 13 hrs in presence of NAD+.

Test [2] addresses Protein mono-ADP-ribosyltransferase PARP4 (Homo sapiens, UniProt Q9UKK3). Briefly: Inhibition of N-terminal His-tagged human ARTD4 (250 to 565 residues) expressed in Escherichia coli Rosetta2 (DE3) using TCEP as substrate after 2.5 hrs in presence of NAD+.
The target of test [3] is T2, Protein mono-ADP-ribosyltransferase PARP12 (Homo sapiens, UniProt Q9H0J9).
T2 sequence (Q9H0J9 whole entry): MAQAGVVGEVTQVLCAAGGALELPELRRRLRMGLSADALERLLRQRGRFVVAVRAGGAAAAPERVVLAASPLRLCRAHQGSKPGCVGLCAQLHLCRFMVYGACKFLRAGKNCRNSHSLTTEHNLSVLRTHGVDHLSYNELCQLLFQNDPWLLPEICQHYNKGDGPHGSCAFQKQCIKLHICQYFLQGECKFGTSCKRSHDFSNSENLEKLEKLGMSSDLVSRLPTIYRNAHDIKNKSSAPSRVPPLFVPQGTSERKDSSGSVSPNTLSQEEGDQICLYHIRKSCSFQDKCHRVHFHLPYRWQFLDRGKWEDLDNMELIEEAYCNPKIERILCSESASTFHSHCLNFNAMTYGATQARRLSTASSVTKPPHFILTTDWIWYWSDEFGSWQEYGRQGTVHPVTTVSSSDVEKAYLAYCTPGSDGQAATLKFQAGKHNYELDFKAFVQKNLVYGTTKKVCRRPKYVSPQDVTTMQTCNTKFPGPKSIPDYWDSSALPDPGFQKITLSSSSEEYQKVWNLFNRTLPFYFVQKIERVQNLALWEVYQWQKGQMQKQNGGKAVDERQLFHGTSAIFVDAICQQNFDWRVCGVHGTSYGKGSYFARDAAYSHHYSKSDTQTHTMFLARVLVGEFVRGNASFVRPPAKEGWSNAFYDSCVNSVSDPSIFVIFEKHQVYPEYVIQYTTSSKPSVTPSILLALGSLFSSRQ
Briefly: Inhibition of N-terminal His-tagged thioredoxin-fused human ARTD12 (469 to 701 residues) expressed in Escherichia coli Rosetta2 (DE3) after 20 hrs in presence of NAD+.

Test [4] deals with T3, Protein mono-ADP-ribosyltransferase PARP10 (Homo sapiens) (UniProt Q53GL7).
T3 sequence (whole entry): T1 sequence (Q53GL7 whole entry)
Description: Stabilization of C-terminal His-tagged human ARTD10 (809 to 1017 residues) expressed in Escherichia coli Rosetta2 (DE3) assessed as change in melting temperature at 100 uM by SYPRO Orange-dye based differential scanning fluorimetric method

The target of test [5] is Protein mono-ADP-ribosyltransferase PARP9 (Homo sapiens) (UniProt Q8IXQ6).
Description: Stabilization of human ARTD9 expressed in Escherichia coli assessed as change in melting temperature at 100 uM by SYPRO Orange-dye based differential scanning fluorimetric method
Test [6] has as its target Zinc finger CCCH-type antiviral protein 1 (Homo sapiens) (UniProt Q7Z2W4).
Description: Stabilization of human ARTD13 expressed in Escherichia coli assessed as change in melting temperature at 100 uM by SYPRO Orange-dye based differential scanning fluorimetric method

Chain of Protein mono-ADP-ribosyltransferase PARP4 (Q9UKK3 whole entry, the tested form may be a part): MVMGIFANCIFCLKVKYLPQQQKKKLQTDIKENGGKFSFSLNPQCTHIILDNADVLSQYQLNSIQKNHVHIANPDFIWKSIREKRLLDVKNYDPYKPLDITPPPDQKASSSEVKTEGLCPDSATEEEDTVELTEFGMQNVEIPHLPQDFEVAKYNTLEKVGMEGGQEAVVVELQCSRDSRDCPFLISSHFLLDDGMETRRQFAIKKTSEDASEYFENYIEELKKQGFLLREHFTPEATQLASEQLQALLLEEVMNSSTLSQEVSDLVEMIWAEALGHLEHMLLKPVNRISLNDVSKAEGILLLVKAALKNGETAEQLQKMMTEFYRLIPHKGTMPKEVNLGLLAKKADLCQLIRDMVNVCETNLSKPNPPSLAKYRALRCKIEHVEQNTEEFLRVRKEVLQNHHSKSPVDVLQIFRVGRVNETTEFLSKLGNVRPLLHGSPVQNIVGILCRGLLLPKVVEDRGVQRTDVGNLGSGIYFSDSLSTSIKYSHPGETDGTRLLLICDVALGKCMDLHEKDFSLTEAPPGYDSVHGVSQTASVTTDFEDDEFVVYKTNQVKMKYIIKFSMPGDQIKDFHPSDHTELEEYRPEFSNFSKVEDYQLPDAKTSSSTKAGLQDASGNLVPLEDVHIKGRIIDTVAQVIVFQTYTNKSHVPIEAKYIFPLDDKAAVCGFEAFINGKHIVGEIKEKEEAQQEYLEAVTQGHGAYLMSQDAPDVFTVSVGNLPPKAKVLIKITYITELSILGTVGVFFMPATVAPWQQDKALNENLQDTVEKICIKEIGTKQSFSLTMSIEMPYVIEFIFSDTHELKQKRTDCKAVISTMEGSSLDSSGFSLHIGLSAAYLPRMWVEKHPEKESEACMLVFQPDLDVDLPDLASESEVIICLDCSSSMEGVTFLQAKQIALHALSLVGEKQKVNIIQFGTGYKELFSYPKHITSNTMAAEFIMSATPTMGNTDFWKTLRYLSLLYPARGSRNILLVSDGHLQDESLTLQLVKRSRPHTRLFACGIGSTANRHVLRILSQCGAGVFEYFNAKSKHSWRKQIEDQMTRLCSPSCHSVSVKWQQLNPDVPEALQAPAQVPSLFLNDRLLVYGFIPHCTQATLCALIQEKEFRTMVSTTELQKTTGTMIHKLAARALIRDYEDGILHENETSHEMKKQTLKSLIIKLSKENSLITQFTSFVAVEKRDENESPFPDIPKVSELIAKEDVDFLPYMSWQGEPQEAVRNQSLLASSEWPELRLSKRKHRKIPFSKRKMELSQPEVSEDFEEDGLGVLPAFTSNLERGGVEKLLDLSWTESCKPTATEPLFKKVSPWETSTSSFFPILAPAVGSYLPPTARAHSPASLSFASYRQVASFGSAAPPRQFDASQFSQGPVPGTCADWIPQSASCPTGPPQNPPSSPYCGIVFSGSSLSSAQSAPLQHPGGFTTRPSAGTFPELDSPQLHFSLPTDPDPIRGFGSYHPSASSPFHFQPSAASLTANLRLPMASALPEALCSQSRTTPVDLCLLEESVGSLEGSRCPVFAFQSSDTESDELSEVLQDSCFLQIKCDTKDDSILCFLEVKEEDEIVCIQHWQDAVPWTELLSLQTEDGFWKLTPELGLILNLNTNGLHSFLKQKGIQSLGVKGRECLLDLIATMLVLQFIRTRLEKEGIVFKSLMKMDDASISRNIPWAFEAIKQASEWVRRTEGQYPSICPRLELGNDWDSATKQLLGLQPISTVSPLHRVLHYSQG
Chain of Zinc finger CCCH-type antiviral protein 1 (Homo sapiens) (Q7Z2W4 whole entry): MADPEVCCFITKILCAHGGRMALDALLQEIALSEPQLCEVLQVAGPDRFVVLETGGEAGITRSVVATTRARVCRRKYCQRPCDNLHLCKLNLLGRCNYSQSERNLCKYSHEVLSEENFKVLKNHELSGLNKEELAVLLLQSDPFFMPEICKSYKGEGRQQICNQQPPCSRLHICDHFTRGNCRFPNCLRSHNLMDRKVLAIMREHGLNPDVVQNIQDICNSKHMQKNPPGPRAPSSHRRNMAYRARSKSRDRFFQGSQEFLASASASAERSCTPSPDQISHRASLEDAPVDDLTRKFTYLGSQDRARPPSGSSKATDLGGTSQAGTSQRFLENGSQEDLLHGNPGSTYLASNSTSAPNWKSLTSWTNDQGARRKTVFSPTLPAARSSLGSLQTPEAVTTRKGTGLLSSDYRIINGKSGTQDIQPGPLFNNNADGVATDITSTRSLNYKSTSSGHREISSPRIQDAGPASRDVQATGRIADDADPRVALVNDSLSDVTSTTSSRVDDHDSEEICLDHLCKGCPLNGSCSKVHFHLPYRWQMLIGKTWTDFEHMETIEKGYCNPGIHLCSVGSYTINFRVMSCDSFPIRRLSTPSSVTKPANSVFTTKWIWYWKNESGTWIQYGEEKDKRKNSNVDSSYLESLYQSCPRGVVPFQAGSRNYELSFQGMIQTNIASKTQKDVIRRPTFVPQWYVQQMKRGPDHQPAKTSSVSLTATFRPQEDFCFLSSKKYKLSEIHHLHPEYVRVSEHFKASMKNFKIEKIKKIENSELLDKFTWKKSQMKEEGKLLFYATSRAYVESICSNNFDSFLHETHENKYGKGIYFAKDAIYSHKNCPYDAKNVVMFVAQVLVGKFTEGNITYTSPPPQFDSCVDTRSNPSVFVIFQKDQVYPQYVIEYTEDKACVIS

For the compound `NC(=O)c1ccc(OCCOc2ccccc2)cc1`, the IC50 in test [1] (read-out: IC50) is 1.9 µM; in test [1] (read-out: pIC50 (converted)), 1.95 µM.
`NC(=O)c1ccc(Oc2ccc(C(N)=O)cc2)cc1`: the IC50 is 23 µM in test [2] and above 10 µM in test [3]. The results for the thermal shift (ΔTm) in test [4], in test [5] and in test [6] were 3.8 °C, 0.72 °C and 0.4 °C, respectively.
For `NC(=O)c1ccc(OCc2ccccn2)cc1`, the IC50 in test [1] (read-out: IC50) and in test [1] (read-out: pIC50 (converted)) was 1.35 µM each time.
In the case of `NC(=O)c1ccc(OC2CCC2)cc1`, the IC50 in test [1] (read-out: IC50) was 0.72 µM; in test [1] (read-out: pIC50 (converted)), 0.724 µM.
Regarding `NC(=O)c1ccc(OCc2cccc(F)c2)cc1`, the IC50 in test [1] (read-out: IC50) was 3.3 µM; in test [1] (read-out: pIC50 (converted)), 3.31 µM.
The corresponding values for `NC(=O)c1ccc(OC(=O)c2ccccc2)cc1` are 7.3 µM and 7.24 µM.
On to `CCOc1ccc(C(N)=O)cc1`, for which the IC50 in test [1] (read-out: IC50) is 3.5 µM; in test [1] (read-out: pIC50 (converted)), 3.39 µM.
As to `NC(=O)c1ccc(Oc2ccc(N)cc2)cc1`, the IC50 in test [1] (read-out: IC50) is 1.3 µM; in test [1] (read-out: pIC50 (converted)) it was 1.26 µM.
For `NC(=O)c1ccc(COc2ccc(C(N)=O)cc2)cc1`, the IC50 in test [1] (read-out: IC50) was determined as 2 µM.
Take `NC(=O)c1ccc(OCc2ccc(F)cc2)cc1`: the IC50 in test [1] (read-out: IC50) is 7.9 µM; in test [1] (read-out: pIC50 (converted)), 7.94 µM.
The corresponding values for `Cc1ccc(COc2ccc(C(N)=O)cc2)cc1` are 9.3 µM and 9.33 µM.
The corresponding values for `NC(=O)c1ccc(Oc2ccc(O)cc2)cc1` are 1.8 µM and 1.74 µM.
On to `CC(C)Oc1ccc(C(N)=O)cc1`, for which the IC50 in test [1] (read-out: IC50) was 1.3 µM; in test [1] (read-out: pIC50 (converted)) it was 1.26 µM.
The corresponding values for `NC(=O)c1ccc(OCc2cccc3ccccc23)cc1` are 1.4 µM and 1.45 µM.
For `Cc1cc(C)cc(COc2ccc(C(N)=O)cc2)c1`, the results for the IC50 in test [1] (read-out: IC50) and in test [1] (read-out: pIC50 (converted)) were 4.5 µM and 4.57 µM, respectively.
Consider `NC(=O)c1ccc(Oc2ccccc2F)cc1`, for which the IC50 in test [1] (read-out: IC50) and in test [1] (read-out: pIC50 (converted)) was 1.7 µM each time.
Consider `NC(=O)c1ccc(OCc2ccccc2)cc1`, for which the IC50 in test [1] (read-out: IC50) is 1.4 µM; in test [1] (read-out: pIC50 (converted)), 1.35 µM.
`COc1ccc(Oc2ccc(C(N)=O)cc2)cc1`: the values for the IC50 in test [1] (read-out: IC50) and in test [1] (read-out: pIC50 (converted)) were 1.4 µM and 1.38 µM, respectively.
The corresponding values for `NC(=O)c1ccc(OCc2ccccc2Br)cc1` are 3.8 µM and 3.8 µM.
The corresponding values for `NC(=O)c1ccc(Oc2ccccc2)cc1` are 1.1 µM and 1.15 µM.

As usually defined, the ΔTm is the change in melting temperature against a reference sample.

The record behind these values is ChEMBL document CHEMBL4270552, “4-(Phenoxy) and 4-(benzyloxy)benzamides as potent and selective inhibitors of mono-ADP-ribosyltransferase PARP10/ARTD10” (Eur J Med Chem, 2018).
